Reference: patent US7598242B2 (priority 2001, dated 2009)
pKi: −log10 of the molar value.

Molecular target: T1, purified catalytic domain of recombinant human TACE (rhTACEc) (Homo sapiens, UniProt P78536, N452Q/S266A)
T1 construct: Residue 215 to 477 with two mutation (S266A and N452Q) and a 6×His tail; 6xHis (C); made in house; host or cells: baculovirus/Hi5 insect cells
Assay: biochemical

T1 sequence (P78536 215-477 S266A/N452Q): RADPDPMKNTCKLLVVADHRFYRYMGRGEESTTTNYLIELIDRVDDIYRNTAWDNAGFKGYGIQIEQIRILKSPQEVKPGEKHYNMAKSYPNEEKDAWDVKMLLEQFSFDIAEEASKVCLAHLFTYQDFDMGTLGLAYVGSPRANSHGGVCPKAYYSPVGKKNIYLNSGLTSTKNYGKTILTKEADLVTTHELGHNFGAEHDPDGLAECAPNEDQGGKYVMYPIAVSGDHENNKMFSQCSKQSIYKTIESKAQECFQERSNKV

| SMILES | pKi |
| --- | --- |
| Cc1cc(COc2ccc(C[C@]3(C(=O)N(C)C)C[C@@H]3C(=O)NO)cc2)c2ccccc2n1 [BL] | > 7.70 |
| CN(C)C(=O)[C@@]1(Cc2ccc(OCc3cc(C(F)(F)F)nc4ccccc34)cc2)C[C@@H]1C(=O)NO [BO] | > 7.70 |
| CN(C)CCNC(=O)[C@@]1(Cc2ccc(OCc3cc(C(F)(F)F)nc4ccccc34)cc2)C[C@@H]1C(=O)NO [BP] | > 7.70 |
| O=C1CN(C(=O)[C@@]2(Cc3ccc(OCc4cc(-c5ccccc5)nc5ccccc45)cc3)C[C@@H]2C(=O)NO)CCN1 [BQ] | > 7.70 |
| CN(C)c1cc(COc2ccc(C[C@]3(C(N)=O)C[C@@H]3C(=O)NO)cc2F)c2ccccc2n1 [CN] | > 7.70 |
| CCc1cc(COc2ccc(C[C@]3(C(N)=O)C[C@@H]3C(=O)NO)cc2F)c2ccccc2n1 [CO] | > 7.70 |
| CCCc1cc(COc2ccc(C[C@]3(C(N)=O)C[C@@H]3C(=O)NO)cc2F)c2ccccc2n1 [CR] | > 7.70 |
| NC(=O)[C@@]1(Cc2ccc(OCc3cc(-c4ccccn4)nc4ccccc34)c(F)c2)C[C@@H]1C(=O)NO [CS] | > 7.70 |
| NC(=O)[C@@]1(Cc2ccc(OCc3cc(C4CC4)nc4ccccc34)c(F)c2)C[C@@H]1C(=O)NO [CU] | > 7.70 |
| Cc1cc(COc2ccc(C[C@]3(C(N)=O)C[C@@H]3C(=O)NO)cc2F)c2ccccc2n1 [CV] | > 7.70 |
| NC(=O)[C@@]1(Cc2ccc(OCc3cc(-c4ccccc4Cl)nc4ccccc34)c(F)c2)C[C@@H]1C(=O)NO [CW] | > 7.70 |
| NC(=O)[C@@]1(Cc2ccc(OCc3cc(-c4ccc(Cl)cc4)nc4ccccc34)c(F)c2)C[C@@H]1C(=O)NO [CY] | > 7.70 |
| CN(C)C(=O)[C@@]1(Cc2ccc(OCc3cc(-c4ccncc4)nc4ccccc34)c(F)c2)C[C@@H]1C(=O)NO [CZ] | > 7.70 |
| NC(=O)[C@@]1(Cc2ccc(OCc3cc(-c4cccnc4)nc4ccccc34)cc2)C[C@@H]1C(=O)NO [DA] | > 7.70 |
| CCc1cc(COc2ccc(C[C@]3(C(=O)OC)C[C@@H]3C(=O)NO)cc2F)c2ccccc2n1 [DB] | > 7.70 |
| Cc1cc(COc2ccc(C[C@]3(C#N)C[C@@H]3C(=O)NO)cc2)c2ccccc2n1 [FG] | > 7.70 |
| Cc1cc(COc2ccc(C[C@]3(C(N)=O)C[C@@H]3C(=O)NO)cc2Cl)c2ccccc2n1 [FN] | > 7.70 |
| Cc1cc(COc2ccc(C[C@]3(C(N)=O)C[C@@H]3C(=O)NO)cc2Br)c2ccccc2n1 [FQ] | > 7.70 |
| CC1CCCN1c1cc(COc2ccc(C[C@]3(C(N)=O)C[C@@H]3C(=O)NO)cc2F)c2ccccc2n1 (some centres unmarked) [FV] | > 7.70 |
| CN1CCN(c2cc(COc3ccc(C[C@]4(C(N)=O)C[C@@H]4C(=O)NO)cc3F)c3ccccc3n2)CC1 [FX] | > 7.70 |
| COC(=O)[C@@]1(Cc2ccc(OCc3cc(N4CCCC4)nc4ccccc34)c(F)c2)C[C@@H]1C(=O)NO [FY] | > 7.70 |
| COC(=O)[C@@]1(Cc2ccc(OCc3cc(N4CCOCC4)nc4ccccc34)c(F)c2)C[C@@H]1C(=O)NO [FZ] | > 7.70 |

| SMILES | pKi |
| --- | --- |
| COC(=O)[C@@]1(Cc2ccc(OCc3cc(N4CCN(C)CC4)nc4ccccc34)c(F)c2)C[C@@H]1C(=O)NO [GA] | > 7.70 |
| CNc1cc(COc2ccc(C[C@]3(C(=O)OC)C[C@@H]3C(=O)NO)cc2F)c2ccccc2n1 [GB] | > 7.70 |
| CCOC(=O)[C@@]1(Cc2ccc(OCc3cc(-c4cccnc4)nc4ccc(C)cc34)c(F)c2)C[C@@H]1C(=O)NO [GV] | > 7.70 |
| CCc1cc(COc2ccc(C[C@]3(C(=O)N4CC[C@H](O)C4)C[C@@H]3C(=O)NO)cc2)c2ccccc2n1 [JC] | > 7.70 |
| CN(C)CCN(C)C(=O)[C@@]1(Cc2ccc(OCc3cc(-c4ccccc4)nc4ccccc34)cc2)C[C@@H]1C(=O)NO [JD] | > 7.70 |
| O=C(NO)[C@H]1C[C@]1(Cc1ccc(OCc2cc(-c3ccccc3)nc3ccccc23)cc1)C(=O)N1CC[C@H](NC(=O)C(F)(F)F)C1 [JE] | > 7.70 |
| CCc1cc(COc2ccc(C[C@]3(C(=O)N4CC[C@H](N(C)C)C4)C[C@@H]3C(=O)NO)cc2)c2ccccc2n1 [JF] | > 7.70 |
| Cc1cc(COc2ccc(C[C@]3(C(=O)N4CCC[C@H]4CO)C[C@@H]3C(=O)NO)cc2)c2ccccc2n1 [JG] | > 7.70 |
| Cc1cc(COc2ccc(C[C@]3(C(=O)N(C)C)C[C@@H]3C(=O)NO)cc2F)c2ccccc2n1 [JO] | > 7.70 |
| CCc1cc(COc2ccc(C[C@]3(C(=O)N4CC[C@H](O)C4)C[C@@H]3C(=O)NO)cc2F)c2ccccc2n1 [JR] | > 7.70 |
| CCc1cc(COc2ccc(C[C@]3(C(=O)N4CC[C@@H](N)C4)C[C@@H]3C(=O)NO)cc2F)c2ccccc2n1 [JS] | > 7.70 |
| CCc1cc(COc2ccc(C[C@]3(C(=O)N4CC[C@H](N(C)C)C4)C[C@@H]3C(=O)NO)cc2F)c2ccccc2n1 [JT] | > 7.70 |
| CCc1cc(COc2ccc(C[C@]3(C(=O)N4CC[C@@H](NC(=O)C(F)(F)F)C4)C[C@@H]3C(=O)NO)cc2F)c2ccccc2n1 [JU] | > 7.70 |
| CN(C)C1CCN(C(=O)[C@@]2(Cc3ccc(OCc4cc(-c5ccncc5)nc5ccccc45)c(F)c3)C[C@@H]2C(=O)NO)C1 (some centres unmarked) [JV] | > 7.70 |
| Cc1cc(COc2cccc([C@@]3(C(=O)NC4CCCCC4)C[C@H]3C(=O)NO)c2)c2ccccc2n1 [JY] | > 7.70 |
| Cc1cc(COc2cccc([C@@]3(C(=O)OC(C)C)C[C@H]3C(=O)NO)c2)c2ccccc2n1 [KM] | > 7.70 |
| N[C@@H]1CCN(C(=O)[C@@]2(Cc3ccc(OCc4cc(-c5ccccc5)nc5ccccc45)cc3)C[C@@H]2C(=O)NO)C1 [KZ] | > 7.70 |
| CCOC(=O)[C@@]1(Cc2ccc(OCc3ccnc(N4CCOCC4)c3)cc2)C[C@@H]1C(=O)NO [LH] | > 7.70 |
| COC(=O)[C@@]1(Cc2ccc(OCc3cc(-c4ccncc4)nc4ccccc34)c(F)c2)C[C@@H]1C(=O)NO [LI] | > 7.70 |
| NC(=O)[C@@]1(Cc2ccc(OCc3cc(N4CCCCC4)nc4ccccc34)c(F)c2)C[C@@H]1C(=O)NO [LM] | > 7.70 |
| Cc1cc(COc2ccc(C[C@]3(C(=O)NCc4ccccc4)C[C@@H]3C(=O)NO)cc2)c2ccccc2n1 [O] | > 7.70 |
| Cc1cc(COc2ccc(C[C@]3(C(=O)NCc4cccnc4)C[C@@H]3C(=O)NO)cc2)c2ccccc2n1 [P] | > 7.70 |
